One assay deals with mouse Nav1.4 (Mus musculus, UniProt Q9ER60). Put plainly: cell-based. As to conditions: for IC50: PatchXpress, tonic block, mouse Nav1.4, read-out: PX mNav1.4 Tonic IC50; for mNav1.4/mNav1.7: ratio of PX tonic IC50, mouse Nav1.4 over mouse Nav1.7.
The next assay concerns the target mNav1.7 (Mus musculus, UniProt Q62205). Put plainly: cell-based. To be noted: for IC50: PatchXpress, tonic block, mouse Nav1.7, read-out: PX mNav1.7 Tonic IC50; for mNav1.7/hNav1.7: ratio of PX tonic IC50, mouse Nav1.7 over human Nav1.7.
Another assay deals with rNav1.7 (Rattus norvegicus, UniProt O08562). Put plainly: cell-based.
The target of the next assay is hNav1.7 (Homo sapiens, UniProt Q15858). In words: cell-based. Format: cell-based. To be noted: read-out: PX hNav1.7 Tonic IC50.
Chain of hNav1.7 (Q15858 whole entry): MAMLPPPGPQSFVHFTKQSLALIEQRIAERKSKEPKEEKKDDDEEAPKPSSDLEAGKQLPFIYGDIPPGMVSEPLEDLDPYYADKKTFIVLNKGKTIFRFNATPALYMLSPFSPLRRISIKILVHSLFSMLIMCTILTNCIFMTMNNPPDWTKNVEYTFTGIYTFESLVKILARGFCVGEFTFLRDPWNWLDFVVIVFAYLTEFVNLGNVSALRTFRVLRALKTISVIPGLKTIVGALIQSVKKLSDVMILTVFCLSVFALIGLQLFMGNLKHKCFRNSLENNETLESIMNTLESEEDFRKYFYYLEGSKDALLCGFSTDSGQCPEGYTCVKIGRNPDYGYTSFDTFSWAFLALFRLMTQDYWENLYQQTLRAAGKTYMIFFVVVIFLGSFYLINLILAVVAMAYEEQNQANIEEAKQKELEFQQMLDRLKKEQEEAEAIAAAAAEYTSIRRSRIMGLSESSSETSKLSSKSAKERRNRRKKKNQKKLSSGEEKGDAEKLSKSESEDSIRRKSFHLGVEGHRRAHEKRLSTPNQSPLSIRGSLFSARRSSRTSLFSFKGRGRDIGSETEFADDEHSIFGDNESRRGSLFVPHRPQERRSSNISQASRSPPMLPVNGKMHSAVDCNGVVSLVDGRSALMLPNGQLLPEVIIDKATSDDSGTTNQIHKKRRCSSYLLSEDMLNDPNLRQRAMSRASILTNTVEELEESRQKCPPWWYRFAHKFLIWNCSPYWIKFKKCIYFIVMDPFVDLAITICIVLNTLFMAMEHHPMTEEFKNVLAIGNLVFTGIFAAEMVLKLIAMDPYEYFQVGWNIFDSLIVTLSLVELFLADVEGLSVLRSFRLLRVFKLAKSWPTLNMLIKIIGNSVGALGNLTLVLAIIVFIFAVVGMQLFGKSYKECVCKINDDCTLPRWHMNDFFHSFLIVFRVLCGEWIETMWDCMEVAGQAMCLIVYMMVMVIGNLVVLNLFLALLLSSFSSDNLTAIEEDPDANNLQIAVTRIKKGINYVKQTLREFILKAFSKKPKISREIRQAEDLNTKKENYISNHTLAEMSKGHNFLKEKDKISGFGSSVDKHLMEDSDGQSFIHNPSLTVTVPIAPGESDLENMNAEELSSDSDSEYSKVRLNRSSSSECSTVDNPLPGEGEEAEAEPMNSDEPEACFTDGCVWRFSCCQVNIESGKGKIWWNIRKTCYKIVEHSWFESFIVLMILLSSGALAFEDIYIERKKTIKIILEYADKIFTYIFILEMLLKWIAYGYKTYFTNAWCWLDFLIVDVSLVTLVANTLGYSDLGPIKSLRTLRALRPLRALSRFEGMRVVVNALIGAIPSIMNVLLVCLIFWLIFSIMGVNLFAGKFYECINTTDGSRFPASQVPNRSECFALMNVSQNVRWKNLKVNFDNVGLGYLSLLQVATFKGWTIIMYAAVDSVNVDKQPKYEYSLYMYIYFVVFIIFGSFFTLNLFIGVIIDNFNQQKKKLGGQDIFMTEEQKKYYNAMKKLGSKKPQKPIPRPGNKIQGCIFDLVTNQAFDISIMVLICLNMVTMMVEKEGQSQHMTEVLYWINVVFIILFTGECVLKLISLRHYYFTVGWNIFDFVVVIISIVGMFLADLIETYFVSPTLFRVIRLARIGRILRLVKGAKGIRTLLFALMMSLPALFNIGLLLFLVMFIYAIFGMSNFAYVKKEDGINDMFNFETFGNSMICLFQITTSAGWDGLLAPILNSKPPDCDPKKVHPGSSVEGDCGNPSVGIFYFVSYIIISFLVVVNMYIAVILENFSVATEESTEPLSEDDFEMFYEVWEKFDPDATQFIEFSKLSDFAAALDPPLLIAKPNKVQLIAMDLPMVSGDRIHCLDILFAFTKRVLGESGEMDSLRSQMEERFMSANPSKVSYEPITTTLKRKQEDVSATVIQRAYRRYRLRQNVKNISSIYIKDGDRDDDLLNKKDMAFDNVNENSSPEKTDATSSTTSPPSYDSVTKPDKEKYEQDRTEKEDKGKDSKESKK
Assay [1] relates to TTX-sensitive Nav channels in mouse DRG neuron. As to conditions: for block of TTX-sensitive Nav current: C57 Black 6 mouse DRG neuron.
Another assay addresses hNav1.4 (Homo sapiens, UniProt P35499). In words: cell-based. As to conditions: for IC50: PatchXpress, tonic block, read-out: PX hNav1.4 Tonic IC50; for Nav1.4/Nav1.7: ratio of PX tonic IC50 values. Format: cell-based.
The next assay concerns the target hNav1.5 (Homo sapiens, UniProt Q14524). Put plainly: cell-based. As to conditions: for Nav1.5/Nav1.7: ratio of PX tonic IC50 values.
The target in another assay is hNav1.6 (Homo sapiens, UniProt Q9UQD0). Put plainly: cell-based. It counts as cell-based. To be noted: Table 15; for Nav1.6/Nav1.7: ratio of PX tonic IC50 values; for IC50: read-out: PX hNav1.6 Tonic IC50.
Setting [2] is: PatchXpress, tonic block, human Nav1.7.

Structures are written as SMILES. Several values for one entry are separate records, joined by “and”; a condition that tells them apart may be missing. Equal values may be shown once. Read-outs that look alike come from different tables or passages of the source.

Chain of mNav1.7 (Q62205 whole entry): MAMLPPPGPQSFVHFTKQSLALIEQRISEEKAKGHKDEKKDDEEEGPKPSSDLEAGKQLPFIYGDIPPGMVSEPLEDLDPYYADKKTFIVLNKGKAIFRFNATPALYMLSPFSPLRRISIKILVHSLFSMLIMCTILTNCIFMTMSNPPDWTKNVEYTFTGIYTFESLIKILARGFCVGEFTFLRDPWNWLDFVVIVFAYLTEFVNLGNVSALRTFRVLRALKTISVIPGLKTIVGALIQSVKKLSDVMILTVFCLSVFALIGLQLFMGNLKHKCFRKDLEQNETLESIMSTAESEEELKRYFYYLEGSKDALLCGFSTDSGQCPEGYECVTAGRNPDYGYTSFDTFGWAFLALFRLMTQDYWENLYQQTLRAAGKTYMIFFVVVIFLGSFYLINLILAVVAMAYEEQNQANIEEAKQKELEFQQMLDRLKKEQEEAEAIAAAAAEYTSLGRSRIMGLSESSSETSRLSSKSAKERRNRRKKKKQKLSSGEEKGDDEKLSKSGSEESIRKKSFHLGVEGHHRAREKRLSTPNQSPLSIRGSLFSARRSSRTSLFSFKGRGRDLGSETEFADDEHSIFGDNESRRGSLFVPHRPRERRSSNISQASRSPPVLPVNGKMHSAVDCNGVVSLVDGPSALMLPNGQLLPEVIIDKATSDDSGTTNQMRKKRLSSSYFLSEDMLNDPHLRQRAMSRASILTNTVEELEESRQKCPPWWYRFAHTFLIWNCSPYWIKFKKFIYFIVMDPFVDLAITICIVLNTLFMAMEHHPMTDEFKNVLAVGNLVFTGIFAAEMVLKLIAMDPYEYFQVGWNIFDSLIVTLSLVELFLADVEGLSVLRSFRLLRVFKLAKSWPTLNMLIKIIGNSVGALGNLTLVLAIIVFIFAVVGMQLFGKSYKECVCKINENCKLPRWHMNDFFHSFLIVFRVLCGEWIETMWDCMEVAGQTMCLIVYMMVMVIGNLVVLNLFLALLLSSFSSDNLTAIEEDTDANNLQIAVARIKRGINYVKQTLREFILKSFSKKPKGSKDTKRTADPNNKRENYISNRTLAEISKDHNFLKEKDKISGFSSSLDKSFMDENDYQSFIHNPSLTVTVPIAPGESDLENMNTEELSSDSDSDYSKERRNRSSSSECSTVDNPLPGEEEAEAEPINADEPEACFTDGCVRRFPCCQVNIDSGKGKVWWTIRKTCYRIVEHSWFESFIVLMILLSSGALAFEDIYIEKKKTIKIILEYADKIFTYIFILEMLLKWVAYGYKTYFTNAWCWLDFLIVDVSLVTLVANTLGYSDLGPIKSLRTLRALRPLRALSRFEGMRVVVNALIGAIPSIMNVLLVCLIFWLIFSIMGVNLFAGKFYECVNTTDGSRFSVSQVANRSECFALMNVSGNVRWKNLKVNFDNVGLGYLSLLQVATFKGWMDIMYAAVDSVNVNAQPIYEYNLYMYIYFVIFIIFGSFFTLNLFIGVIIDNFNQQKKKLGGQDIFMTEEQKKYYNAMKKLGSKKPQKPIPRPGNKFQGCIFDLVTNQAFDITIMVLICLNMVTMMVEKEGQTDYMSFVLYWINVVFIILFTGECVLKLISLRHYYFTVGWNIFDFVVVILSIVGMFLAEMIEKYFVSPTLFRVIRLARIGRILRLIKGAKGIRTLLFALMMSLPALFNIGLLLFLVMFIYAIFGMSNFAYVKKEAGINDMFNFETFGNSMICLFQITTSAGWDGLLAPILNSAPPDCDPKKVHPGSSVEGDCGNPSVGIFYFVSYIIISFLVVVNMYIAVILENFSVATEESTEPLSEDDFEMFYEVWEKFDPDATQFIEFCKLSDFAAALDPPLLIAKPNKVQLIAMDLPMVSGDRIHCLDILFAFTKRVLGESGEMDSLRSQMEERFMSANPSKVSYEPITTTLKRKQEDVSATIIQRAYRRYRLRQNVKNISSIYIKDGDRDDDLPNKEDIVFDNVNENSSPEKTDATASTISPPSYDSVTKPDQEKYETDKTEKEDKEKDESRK

As usually defined, the IC50 is the concentration needed to halve the response being measured. Regarding `C#CC[C@H](N)C(=O)N[C@@H](CCC(=O)O)C(=O)N[C@H]1CSSC[C@@H]2NC(=O)[C@@H]3CSSC[C@@H](C(=O)N[C@@H](CCCNC(=N)N)C(=O)N[C@@H](CCCCN)C(=O)N[C@@H](CCC(=O)O)C(=O)N[C@H](C(N)=O)[C@@H](C)CC)NC(=O)[C@H](Cc4c[nH]c5ccccc45)NC(=O)[C@H](CC(C)C)NC(=O)[C@H](CCCCN)NC(=O)[C@H](CSSC[C@H](NC(=O)[C@H]([C@@H](C)O)NC(=O)[C@H](Cc4c[nH]c5ccccc45)NC(=O)[C@H](CCCC)NC(=O)[C@H](Cc4c[nH]c5ccccc45)NC(=O)[C@H](CCCCN)NC(=O)[C@H](CCC(N)=O)NC1=O)C(=O)N[C@@H](CC(=O)O)C(=O)N[C@@H](CO)C(=O)N[C@@H](CCCCN)C(=O)N[C@@H](CCCNC(=N)N)C(=O)N[C@@H](C)C(=O)N3)NC(=O)[C@H](CCCNC(=N)N)NC(=O)[C@H](CC(C)C)NC(=O)CNC(=O)[C@H](CCC(=O)O)NC2=O` [Pra-[Glu1, 28; Nle6]JzTx-V(1-29)], the concentration for half-maximal inhibition (IC50) was found to be 259 nM on mouse Nav1.4; 9.48 nM at mNav1.7; 1.38 nM on rNav1.7 (PatchXpress, tonic block, rat Nav1.7, read-out: PX rNav1.7 Tonic IC50). Besides, the mNav1.4/mNav1.7 at mouse Nav1.4 worked out at 27. The mNav1.7/hNav1.7 on mNav1.7 worked out at 8.41. The rNav1.7/hNav1.7 on rNav1.7 (ratio of PX tonic IC50, rat Nav1.7 over human Nav1.7) is reported as 1.22.
Take `CCCC[C@@H]1NC(=O)[C@H](Cc2c[nH]c3ccccc23)NC(=O)[C@H](CCCCN)NC(=O)[C@H](CCC(N)=O)NC(=O)[C@@H](NC(=O)[C@H](Cc2ccc(O)cc2)NC(=O)[C@@H](N)CCC)CSSC[C@@H]2NC(=O)[C@@H]3CSSC[C@@H](C(=O)N[C@@H](CCCNC(=N)N)C(=O)N[C@@H](CCCCN)C(=O)N[C@H](C(=O)N[C@H](C(N)=O)[C@@H](C)CC)[C@@H](C)CC)NC(=O)[C@H](Cc4c[nH]c5ccccc45)NC(=O)[C@H](CC(C)C)NC(=O)[C@H](CCCCN)NC(=O)[C@H](CSSC[C@H](NC(=O)[C@H]([C@@H](C)O)NC(=O)[C@H](Cc4c[nH]c5ccccc45)NC1=O)C(=O)N[C@@H](CC(=O)O)C(=O)N[C@@H](CO)C(=O)N[C@@H](CCCCN)C(=O)N[C@@H](CCCNC(=N)N)C(=O)N[C@@H](C)C(=O)N3)NC(=O)[C@H](CCCNC(=N)N)NC(=O)[C@H](CC(C)C)NC(=O)CNC(=O)[C@H](CCC(=O)O)NC2=O` [Nva-[Nle6]JzTx-V(1-29)]: the results for the IC50 on mouse Nav1.4 and on hNav1.7 (setting [2]) were 4.54 nM and 0.82 nM, respectively.
As to `C#CC[C@H](N)C(=O)N[C@@H](Cc1ccc(O)cc1)C(=O)N[C@H]1CSSC[C@@H]2NC(=O)[C@@H]3CSSC[C@@H](C(=O)N[C@@H](CCCNC(=N)N)C(=O)N[C@@H](CCCCN)C(=O)N[C@@H](CCC(=O)O)C(=O)N[C@H](C(N)=O)[C@@H](C)CC)NC(=O)[C@H](Cc4c[nH]c5ccccc45)NC(=O)[C@H](CC(C)C)NC(=O)[C@H](CCCCN)NC(=O)[C@H](CSSC[C@H](NC(=O)[C@H]([C@@H](C)O)NC(=O)[C@H](Cc4c[nH]c5ccccc45)NC(=O)[C@H](CCCC)NC(=O)[C@H](Cc4c[nH]c5ccccc45)NC(=O)[C@H](CCCCN)NC(=O)[C@H](CCC(N)=O)NC1=O)C(=O)N[C@@H](CC(=O)O)C(=O)N[C@@H](CO)C(=O)N[C@@H](CCC(=O)O)C(=O)N[C@@H](CCCNC(=N)N)C(=O)N[C@@H](C)C(=O)N3)NC(=O)[C@H](CCCNC(=N)N)NC(=O)[C@H](CC(C)C)NC(=O)CNC(=O)[C@H](CCC(=O)O)NC2=O` [compound 715], the IC50 is 144 nM in assay [1]; 811 nM at hNav1.4 (Table 12); above 10000 nM on hNav1.5 (Table 12, PatchXpress, tonic block, read-out: PX hNav1.5 Tonic IC50); 1.73 nM on hNav1.7 (Table 12, PatchXpress, tonic block); 877 nM on hNav1.6. Also, the “block of TTX-sensitive Nav current” value in assay [1] (1000 nM) is reported as “approximately 90%”. For the same molecule, the Nav1.4/Nav1.7 at hNav1.4 (Table 12) amounted to 470. Further, at hNav1.5 (Table 12), the Nav1.5/Nav1.7 was above 5794. The Nav1.6/Nav1.7 on hNav1.6 was 508.
For `C#CC[C@H](N)C(=O)N[C@@H](Cc1ccc(O)cc1)C(=O)N[C@H]1CSSC[C@@H]2NC(=O)[C@@H]3CSSC[C@@H](C(=O)N[C@@H](CCCNC(=N)N)C(=O)N[C@@H](CCCCN)C(=O)N[C@H](C(=O)N[C@@H](Cc4c[nH]c5ccccc45)C(N)=O)[C@@H](C)CC)NC(=O)[C@H](Cc4c[nH]c5ccccc45)NC(=O)[C@H](CC(C)C)NC(=O)[C@H](CCCCN)NC(=O)[C@H](CSSC[C@H](NC(=O)[C@H]([C@@H](C)O)NC(=O)[C@H](Cc4c[nH]c5ccccc45)NC(=O)[C@H](CCCC)NC(=O)[C@H](Cc4c[nH]c5ccccc45)NC(=O)[C@H](CCCCN)NC(=O)[C@H](CCC(N)=O)NC1=O)C(=O)N[C@@H](CC(=O)O)C(=O)N[C@@H](CO)C(=O)N[C@@H](CCCCN)C(=O)N[C@@H](CCCNC(=N)N)C(=O)N[C@@H](C)C(=O)N3)NC(=O)[C@H](CCCNC(=N)N)NC(=O)[C@H](CC(C)C)NC(=O)CNC(=O)[C@H](CCC(=O)O)NC2=O` [Pra-[Nle6; Trp29]JzTx-V(1-29)], at mouse Nav1.4, the IC50 worked out at 9.67 nM and the mNav1.4/mNav1.7 is given as 0.91. In addition, at mNav1.7, the half-inhibitory concentration (IC50) amounted to 10.7 nM and the mNav1.7/hNav1.7 is listed as 2.23.
For `CCCC[C@@H]1NC(=O)[C@H](Cc2c[nH]c3ccccc23)NC(=O)[C@H](CCCCN)NC(=O)[C@H](CCC(N)=O)NC(=O)[C@@H](NC(=O)[C@H](Cc2ccc(O)cc2)NC(=O)[C@@H](N)CC#N)CSSC[C@@H]2NC(=O)[C@@H]3CSSC[C@@H](C(=O)N[C@@H](CCCNC(=N)N)C(=O)N[C@@H](CCCCN)C(=O)N[C@@H](CCC(=O)O)C(=O)N[C@H](C(N)=O)[C@@H](C)CC)NC(=O)[C@H](Cc4c[nH]c5ccccc45)NC(=O)[C@H](CC(C)C)NC(=O)[C@H](CCCCN)NC(=O)[C@H](CSSC[C@H](NC(=O)[C@H]([C@@H](C)O)NC(=O)[C@H](Cc4c[nH]c5ccccc45)NC1=O)C(=O)N[C@@H](CC(=O)O)C(=O)N[C@@H](CO)C(=O)N[C@@H](CCCCN)C(=O)N[C@@H](CCCNC(=N)N)C(=O)N[C@@H](C)C(=O)N3)NC(=O)[C@H](CCCNC(=N)N)NC(=O)[C@H](CC(C)C)NC(=O)CNC(=O)[C@H](Cc1cn(CCCOCCOCCOCCOCCOCCOCCOCCOCCOCCOCCN)nn1)NC2=O` [compound 443], it took 35.2 nM to reach half-maximal inhibition in assay [1] (IC50). Also, in assay [1] (300 nM), the “block of TTX-sensitive Nav current” value is given as “over 75%”. At hNav1.4 (Table 13), the Nav1.4/Nav1.7 was 31. Further, the Nav1.5/Nav1.7 on hNav1.5 (Table 13) was found to be 236.
Consider `C#CC[C@H](N)C(=O)NCCCC[C@@H]1NC(=O)[C@H](CCCNC(=N)N)NC(=O)[C@H](CCCCN)NC(=O)[C@H](CO)NC(=O)[C@H](CC(=O)O)NC(=O)[C@@H]2CSSC[C@@H]3NC(=O)[C@H](CCCNC(=N)N)NC(=O)[C@H](CC(C)C)NC(=O)CNC(=O)[C@H](CCC(=O)O)NC(=O)[C@H](CSSC[C@H](NC(=O)[C@H](Cc4ccc(O)cc4)NC(=O)[C@@H](N)CC#N)C(=O)N[C@@H](CCC(N)=O)C(=O)N[C@@H](CCCCN)C(=O)N[C@@H](Cc4c[nH]c5ccccc45)C(=O)N[C@@H](CCCC)C(=O)N[C@@H](Cc4c[nH]c5ccccc45)C(=O)N[C@@H]([C@@H](C)O)C(=O)N2)NC(=O)[C@H](CSSC[C@@H](C(=O)N[C@@H](CCCNC(=N)N)C(=O)N[C@@H](CCCCN)C(=O)N[C@@H](CCC(=O)O)C(=O)N[C@H](C(N)=O)[C@@H](C)CC)NC(=O)[C@H](Cc2c[nH]c4ccccc24)NC(=O)[C@H](CC(C)C)NC(=O)[C@H](CCCCN)NC3=O)NC1=O` [compound 392], for which the IC50 in assay [1] was found to be 46.6 nM; on hNav1.4 (Table 12), 110 nM; on hNav1.7 (Table 15), 1.59 nM; at hNav1.6 it was 250 nM. In addition, in assay [1], the “fold less potent than JzTx-V in inhibition of TTX-sensitive current” value is “about 3 fold”. Besides, the Nav1.5/Nav1.7 at hNav1.5 (Table 12) is 659 and 615 and 841. In addition, on hNav1.6, the Nav1.6/Nav1.7 turned out to be 157.
In the case of `CCCC[C@@H]1NC(=O)[C@H](Cc2c[nH]c3ccccc23)NC(=O)[C@H](CCCCN)NC(=O)[C@H](CCC(N)=O)NC(=O)[C@@H](NC(=O)[C@H](Cc2ccc(O)cc2)NC(=O)[C@@H](N)CC(C)C)CSSC[C@@H]2NC(=O)[C@@H]3CSSC[C@@H](C(=O)N[C@@H](CCCNC(=N)N)C(=O)N[C@@H](CCCCN)C(=O)N[C@H](C(=O)N[C@H](C(N)=O)[C@@H](C)CC)[C@@H](C)CC)NC(=O)[C@H](Cc4c[nH]c5ccccc45)NC(=O)[C@H](CC(C)C)NC(=O)[C@H](CCCCN)NC(=O)[C@H](CSSC[C@H](NC(=O)[C@H]([C@@H](C)O)NC(=O)[C@H](Cc4c[nH]c5ccccc45)NC1=O)C(=O)N[C@@H](CC(=O)O)C(=O)N[C@@H](CO)C(=O)N[C@@H](CCCCN)C(=O)N[C@@H](CCCNC(=N)N)C(=O)N[C@@H](C)C(=O)N3)NC(=O)[C@H](CCCNC(=N)N)NC(=O)[C@H](CC(C)C)NC(=O)CNC(=O)[C@H](CCC(=O)O)NC2=O` [Leu-[Nle6]JzTx-V(1-29)], the IC50 on mouse Nav1.4 came out at 1.8 nM; on mNav1.7 it was 1.33 nM; on hNav1.7 (setting [2]), 0.13 nM. Besides, the mNav1.4/mNav1.7 on mouse Nav1.4 is on record as 1.4. The mNav1.7/hNav1.7 on mNav1.7 is reported as 10.22.

For the origin of these results see patent US10344060B2 (priority 2013, dated 2019).
